Data published in patent publication US20250346582A1, “SPLEEN TYROSINE KINASE INHIBITORS AND METHODS OF USE THEREOF” (THE BOARD OF TRUSTEES OF THE UNIVERSITY OF ILLINOIS, priority 2022, published 2025).
Read-outs that look alike come from different tables or passages of the source.

Target: T1, Syk-cSH2 (Homo sapiens, UniProt P43405)
T1 construct: polyhistidine (N); made in house; host or cells: Escherichia coli BL21 (DE3) pLysS
Experiment: Fluorescence quenching vesicle binding assay, Syk-cSH2
Description: The membrane-binding assay is based on fluorescence quenching of EGFP fused to a SH2 domain by a dark quencher containing lipid, dabsyl-PE, incorporated in lipid vesicles. The plate reader assay was performed using the Synergy™ Neo spectrofluorometer at 25° C. Nontreated black polystyrene 96-well plates (Corning) were used. Protein (10-50 nM) with the increasing concentration of vesicles with a given lipid composition in 20 mM Tris buffer, pH 7.4, containing 0.16 M NaCl was added to each row of wells and the EGFP fluorescence emission at 516 nm was measured with excitation set at 485 nm. Z′ factor for the assay system was determined as described^74. Imax and IC50 values of inhibitors were determined using the equation, I=Imax/(1+IC50/[I]) where I and [I] indicate % inhibition and inhibitor concentration, respectively. The average and standard deviation values were obtained from triplicate determinations.
We also optimized a recently developed fluorescence quenching-based lipid-binding assay^47 for high-throughput screening of these molecules for their inhibitory activity against the PIP3-SH2 interaction. Specifically, we expressed SH2 domains as EGFP-tagged proteins and directly quantified their membrane binding by monitoring the quenching of EGFP fluorescence emission intensity by a dark quencher-containing lipid, N-dimethylaminoazo-benzenesulfonyl-phosphatidylethanolamine (dabsyl-PE), incorporated in the vesicles. We then screened for compounds that inhibited binding of Syk-cSH2, BLNK-SH2, and PLCγ2-cSH2, respectively, to 1-palmitoyl-2-oleoyl-PC (POPC)/1-palmitoyl-2-oleoyl-PS (POPS)/PIP3/dabsyl-PE (67:20:3:10) vesicles while eliminating those that inhibit their non-specific binding to anionic POPC/POPS/dabsyl-PE (70:20:10) vesicles. The quality of the screening system was evaluated using 1% dimethylsulfoxide (DMSO) and 20 μM D-myo-inositol-1,3,4,5-tetraphosphate (IP4) as negative and positive controls, respectively. The clear separation of positive and negative control data and the average Z′-factor of 0.7 supported the robustness of our system for high-throughput screen of PIP3-SH2 interaction inhibitors.

[1] = Table 3, efficacy determined by the vesicle binding assay
[2] = Table 3, efficacy determined by the vesicle binding assay, read-out: IC50

For [N-]=[N+]=C(C(=O)OC1CCCCC1)C(Nc1ncccn1)c1ccc(O)cc1 (stereo not drawn) [WC = 42], the “Imax (%)” value [1] was “Imax (%) = 12” and the IC50 [2] was 4 µM.
COc1ccc(C(Nc2ncccn2)C(=[N+]=[N-])C(=O)OC2CCCCC2)cc1 (stereo not drawn) [WC-30] was tested, and the “Imax (%)” value [1] was “Imax (%) = 10” and the IC50 [2] was 3.8 µM.
In the case of [N-]=[N+]=C(C(=O)OC1CCCCC1)C(Nc1ncccn1)c1ccc(F)cc1 (stereo not drawn) [WC-32], the “Imax (%)” value [1] is reported as “Imax (%) = 10” and the IC50 [2] is reported as 5 µM.
For CN(C)c1ccc(C(Nc2ncccn2)C(=[N+]=[N-])C(=O)OC2CCCCC2)cc1 (stereo not drawn) [WC-34], the “Imax (%)” value [1] was “Imax (%) = 10” and the IC50 [2] was 2.8 µM.
In the case of [N-]=[N+]=C(C(=O)OC1CCCCC1)C(Nc1ncccn1)c1cccs1 (stereo not drawn) [WC-37], the “Imax (%)” value [1] is reported as “Imax (%) = 15” and the IC50 [2] is reported as 2.8 µM.
COc1cc(OC)cc(C(Nc2ncccn2)C(=[N+]=[N-])C(=O)OC2CCCCC2)c1 (stereo not drawn) [WC-45] was tested, and the “Imax (%)” value [1] was “Imax (%) = 12” and the IC50 [2] was 3.6 µM.
For [N-]=[N+]=C(C(=O)OC1CCCCC1)C(Nc1ncccn1)c1ccccc1 (stereo not drawn) [WC-46], the “Imax (%)” value [1] was “Imax (%) = 10” and the IC50 [2] was 5 µM.
For CC(C)(C)OC(=O)C(=[N+]=[N-])C(Nc1ccccn1)c1ccc(Br)cc1 (stereo not drawn) [WC-50], the “Imax (%)” value [1] was “Imax (%) = 10” and the IC50 [2] was 4.5 µM.
In the case of [N-]=[N+]=C(C(=O)OC1CCCCC1)C(Nc1ccccn1)c1ccc(O)c(Br)c1 (stereo not drawn) [WC-52], the “Imax (%)” value [1] is reported as “Imax (%) = 12” and the IC50 [2] is reported as 3.5 µM.
With Cc1ccc(C(Nc2ncccn2)C(=[N+]=[N-])C(=O)OC(C)(C)C)cc1 (stereo not drawn) [WC-56] the “Imax (%)” value [1] was “Imax (%) ≤ 10” and the IC50 [2] was 2 µM.
With COc1cc(C(Nc2ncccn2)C(=[N+]=[N-])C(=O)OC(C)(C)C)cc(OC)c1OC (stereo not drawn) [WC-59] the “Imax (%)” value [1] was “Imax (%) ≤ 10” and the IC50 [2] was 4 µM.
[N-]=[N+]=C(C(=O)OC1CCCCC1)C(Nc1ccccn1)c1ccc(Br)cc1 (stereo not drawn) [WC-62] was tested, and the “Imax (%)” value [1] was “Imax (%) ≤ 10” and the IC50 [2] was 5 µM.
With [N-]=[N+]=C(C(=O)OC1CCCCC1)C(Nc1ncccn1)c1ccc(Br)cc1 (stereo not drawn) [WC-68] the “Imax (%)” value [1] was “Imax (%) ≤ 10” and the IC50 [2] was 4.5 µM.
In the case of [N-]=[N+]=C(C(=O)OC1CCCCC1)C(Nc1ncccn1)c1c(F)c(F)c(F)c(F)c1F (stereo not drawn) [WC-70], the “Imax (%)” value [1] is reported as “Imax (%) ≤ 10” and the IC50 [2] is reported as 2.5 µM.
Cc1ccc(C(Nc2cnccn2)C(=[N+]=[N-])C(=O)OC2CCCCC2)cc1 (stereo not drawn) [WC-73] was tested, and the “Imax (%)” value [1] was “Imax (%) ≤ 10” and the IC50 [2] was 8 µM.
With CCOP(=O)(OCC)C(=[N+]=[N-])C(Nc1ccccn1)c1ccc(C)cc1 (stereo not drawn) [WC-75] the IC50 was 7 µM and the “Imax (%)” value [1] was “Imax (%) = 12”.
For Cc1ccc(C(CC(=O)OC2CCCCC2)Nc2ncccn2)cc1 (stereo not drawn) [WC-79], the “Imax (%)” value [1] was “Imax (%) ≤ 10” and the IC50 [2] was 10 µM.
For Cc1ccc(/C(=C/C(=O)OC2CCCCC2)Nc2cnccn2)cc1 [WC-80], the “Imax (%)” value [1] was “Imax (%) = > 10” and the IC50 [2] was 15 µM.
For CCOP(=O)(/C=C(\Nc1ccccn1)c1ccc(C)cc1)OCC [WC-85], the IC50 was 12 µM and the “Imax (%)” value [1] was “Imax (%) ≤ 10”.
With CCOC(=O)/C=C(\NS(=O)(=O)c1ccccc1)c1ccc(C)cc1 [WC-90] the “Imax (%)” value [1] was “Imax (%) ≤ 10” and the IC50 [2] was 20 µM.
For Cc1ccc(C(Nc2ncc(C)s2)C(=[N+]=[N-])C(=O)OC2CCCCC2)cc1 (stereo not drawn) [WC-92], the “Imax (%)” value [1] was “Imax (%) = 15” and the IC50 [2] was 10 µM.
For Cc1ccc(C(Nc2cc(C)ccn2)C(=[N+]=[N-])C(=O)OC2CCCCC2)cc1 (stereo not drawn) [WC-95], the “Imax (%)” value [1] was “Imax (%) ≤ 10” and the IC50 [2] was 5 µM.
For Cc1ccc(C(Nc2ncccn2)C(=[N+]=[N-])C(=O)OC2CCCC2)cc1 (stereo not drawn) [WC-100], the “Imax (%)” value [1] was “Imax (%) = 18” and the IC50 [2] was 2 µM.
With Cc1ccc(C(Nc2ncccn2)C(=[N+]=[N-])C(=O)ON2CCC(C)CC2)cc1 (stereo not drawn) [WC-105] the “Imax (%)” value [1] was “Imax (%) = 15” and the IC50 [2] was 4 µM.
Cc1ccc(C(Nc2ncccn2)C(=[N+]=[N-])C(=O)ON2CCOCC2)cc1 (stereo not drawn) [WC-108] was tested, and the “Imax (%)” value [1] was “Imax (%) = 20” and the IC50 [2] was 2 µM.
For Cc1ccc(C(Nc2ncccn2)C(=[N+]=[N-])C(=O)ON2CCN(C)CC2)cc1 (stereo not drawn) [WC-109], the “Imax (%)” value [1] was “Imax (%) = 25” and the IC50 [2] was 2 µM.
With CCOC(=O)C(=[N+]=[N-])C(Nc1ccccn1)c1ccccc1 (stereo not drawn) [WC-110] the “Imax (%)” value [1] was “Imax (%) ≤ 10” and the IC50 [2] was 5 µM.
